Test [1] can be described thus: intracellular Trypanosoma cruzi inhibitors in host cells – cell-based, plate reader, cherry-pick samples, set 3, dose response (AID 651818).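 Also: compounds incubated with infected cells for about four days.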 In kind it is functional.
The target in test [2] is T1, Sentrin-specific protease 8 (Homo sapiens, UniProt Q96LD8).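 Also: luminescence read-out of SENP8 inhibition, dose-response confirmation following an ultra-high-throughput screen.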
T1 sequence (Q96LD8 whole entry): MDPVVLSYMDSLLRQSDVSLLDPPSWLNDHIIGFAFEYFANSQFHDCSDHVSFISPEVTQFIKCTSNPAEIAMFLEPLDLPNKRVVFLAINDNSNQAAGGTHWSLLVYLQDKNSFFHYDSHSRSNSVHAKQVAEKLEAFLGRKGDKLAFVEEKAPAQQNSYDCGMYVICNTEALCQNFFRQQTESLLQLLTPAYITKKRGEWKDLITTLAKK
The class given is functional.

For test [3], the target named is T2, Sentrin-specific protease 6 (Homo sapiens, UniProt Q9GZR1).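 Also: Luminescence-based dose-response confirmatory assay of SENP6 inhibition, following up an ultra-high-throughput screen.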
T2 sequence (Q9GZR1 whole entry): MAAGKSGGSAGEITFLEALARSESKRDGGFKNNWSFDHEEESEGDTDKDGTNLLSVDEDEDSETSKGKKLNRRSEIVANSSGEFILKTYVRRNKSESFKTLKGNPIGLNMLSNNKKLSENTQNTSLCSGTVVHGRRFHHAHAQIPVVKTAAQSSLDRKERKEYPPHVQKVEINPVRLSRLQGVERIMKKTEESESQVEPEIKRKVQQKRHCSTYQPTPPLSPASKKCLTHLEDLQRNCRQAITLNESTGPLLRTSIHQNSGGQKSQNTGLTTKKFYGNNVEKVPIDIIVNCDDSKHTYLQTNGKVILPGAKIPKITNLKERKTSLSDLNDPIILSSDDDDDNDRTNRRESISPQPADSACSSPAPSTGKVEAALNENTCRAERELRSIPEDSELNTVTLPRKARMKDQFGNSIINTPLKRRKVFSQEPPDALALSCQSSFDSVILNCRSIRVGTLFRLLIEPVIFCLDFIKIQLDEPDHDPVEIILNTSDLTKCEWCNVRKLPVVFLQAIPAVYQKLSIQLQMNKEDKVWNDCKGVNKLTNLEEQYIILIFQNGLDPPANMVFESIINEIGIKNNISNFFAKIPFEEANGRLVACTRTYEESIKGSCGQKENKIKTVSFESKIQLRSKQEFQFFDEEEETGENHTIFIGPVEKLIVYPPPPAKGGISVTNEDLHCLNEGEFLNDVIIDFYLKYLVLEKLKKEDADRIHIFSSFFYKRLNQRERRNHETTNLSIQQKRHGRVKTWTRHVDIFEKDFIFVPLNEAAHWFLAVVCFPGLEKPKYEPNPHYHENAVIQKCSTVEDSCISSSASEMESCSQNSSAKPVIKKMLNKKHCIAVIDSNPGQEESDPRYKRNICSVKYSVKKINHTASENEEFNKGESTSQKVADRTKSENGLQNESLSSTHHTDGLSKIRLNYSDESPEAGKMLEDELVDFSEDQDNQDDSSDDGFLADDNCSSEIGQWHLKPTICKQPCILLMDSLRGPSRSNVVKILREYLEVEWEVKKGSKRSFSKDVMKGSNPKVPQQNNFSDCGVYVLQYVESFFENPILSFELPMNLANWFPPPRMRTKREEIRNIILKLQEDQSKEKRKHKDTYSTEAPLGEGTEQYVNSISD
The class given is functional.

A further test deals with T3, Caspase-3 (Homo sapiens, UniProt P42574).
T3 sequence (P42574 whole entry): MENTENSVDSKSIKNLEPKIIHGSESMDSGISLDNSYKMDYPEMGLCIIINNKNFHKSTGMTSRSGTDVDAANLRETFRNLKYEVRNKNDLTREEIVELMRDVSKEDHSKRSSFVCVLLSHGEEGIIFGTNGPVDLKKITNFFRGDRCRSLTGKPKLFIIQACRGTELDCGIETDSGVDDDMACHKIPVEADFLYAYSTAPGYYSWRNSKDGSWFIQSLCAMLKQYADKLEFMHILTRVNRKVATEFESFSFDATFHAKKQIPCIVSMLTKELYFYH
In kind it is functional.

Test [4] concerns the target T4, Sentrin-specific protease 7 (Homo sapiens, UniProt Q9BQF6).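 Also: Luminescence-based dose-response confirmation of ultra-high-throughput screening hits, measuring inhibition of SENP7.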
T4 sequence (Q9BQF6 whole entry): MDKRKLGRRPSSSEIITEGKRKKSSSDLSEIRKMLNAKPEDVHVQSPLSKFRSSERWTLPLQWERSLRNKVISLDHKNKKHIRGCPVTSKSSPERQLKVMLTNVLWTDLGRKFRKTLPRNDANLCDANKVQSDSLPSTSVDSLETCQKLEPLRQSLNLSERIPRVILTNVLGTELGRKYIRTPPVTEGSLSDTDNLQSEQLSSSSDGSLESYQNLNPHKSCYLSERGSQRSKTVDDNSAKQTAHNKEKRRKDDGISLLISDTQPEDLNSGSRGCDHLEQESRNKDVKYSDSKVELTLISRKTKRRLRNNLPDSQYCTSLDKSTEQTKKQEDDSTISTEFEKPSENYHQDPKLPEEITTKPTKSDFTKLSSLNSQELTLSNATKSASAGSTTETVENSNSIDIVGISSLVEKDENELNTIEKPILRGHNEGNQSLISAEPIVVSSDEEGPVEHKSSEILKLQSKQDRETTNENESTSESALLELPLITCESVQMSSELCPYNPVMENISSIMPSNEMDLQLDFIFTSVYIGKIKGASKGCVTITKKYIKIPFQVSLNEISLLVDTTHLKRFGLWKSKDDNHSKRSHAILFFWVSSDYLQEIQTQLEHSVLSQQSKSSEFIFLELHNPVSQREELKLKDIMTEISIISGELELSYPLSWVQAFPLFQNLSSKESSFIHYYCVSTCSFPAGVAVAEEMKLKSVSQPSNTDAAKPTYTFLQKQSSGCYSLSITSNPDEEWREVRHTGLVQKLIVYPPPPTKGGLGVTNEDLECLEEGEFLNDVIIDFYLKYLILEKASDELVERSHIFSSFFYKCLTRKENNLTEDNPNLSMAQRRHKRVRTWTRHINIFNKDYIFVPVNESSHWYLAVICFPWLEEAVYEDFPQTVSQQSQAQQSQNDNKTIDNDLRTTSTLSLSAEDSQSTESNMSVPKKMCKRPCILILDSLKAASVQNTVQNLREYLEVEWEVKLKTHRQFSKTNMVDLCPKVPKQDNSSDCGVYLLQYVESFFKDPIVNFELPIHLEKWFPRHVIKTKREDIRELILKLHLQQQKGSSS
The class given is functional.

Test [5] addresses Heat shock protein HSP 90-alpha (Homo sapiens, UniProt P07900). In kind it is functional, organism-based.
Test [6] can be described thus: growth suppression of PTEN-null colon cells, dose response, cell-based, HCT116 PTEN knockout (AID 1047).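 Also: HCT116 colon tumor cells with PTEN knocked out; cells exposed to compound for 60 hours before readout; potency for loss of cell viability measured by luminescence.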 The class given is functional.
Test [7] can be described thus: growth suppression of beta-catenin-knockout colon cells, dose response, cell-based, HCT116, human colon tumor (AID 1045).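 Also: HCT116 colon tumor cells with beta catenin knocked out; cells exposed to compound for 60 hours.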 The class given is functional.
A short description of test [8]: inhibitors of Bluetongue virus cytopathic effect, confirmation, arbovirus, BSR cells (AID 1250).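 Also: protection from viral cytopathic effect measured as cell viability by ATP luminescence.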 The class given is functional.
Test [9] addresses 26S proteasome non-ATPase regulatory subunit 14 (Homo sapiens, UniProt O00487). The experiment in a line: inhibition of proteasome subunit RPN11 – biochemical, fluorescence polarization, uHTS hits, confirmation (AID 602368). The class given is functional.
A further test concerns the target Prothrombin (Bos taurus, UniProt P00735). Description: thrombin inhibition, dose response, biochemical, fluorescence polarization, uHTS hits (AID 602369). In kind it is functional.
The target in test [10] is 72 kDa type IV collagenase (Homo sapiens, UniProt P08253). The experiment in a line: Dose Response validation of uHTS RPN11 inhibitor hits using a MMP-2 Fluorescence assay. In kind it is functional.
Sequence of 72 kDa type IV collagenase (P08253 whole entry): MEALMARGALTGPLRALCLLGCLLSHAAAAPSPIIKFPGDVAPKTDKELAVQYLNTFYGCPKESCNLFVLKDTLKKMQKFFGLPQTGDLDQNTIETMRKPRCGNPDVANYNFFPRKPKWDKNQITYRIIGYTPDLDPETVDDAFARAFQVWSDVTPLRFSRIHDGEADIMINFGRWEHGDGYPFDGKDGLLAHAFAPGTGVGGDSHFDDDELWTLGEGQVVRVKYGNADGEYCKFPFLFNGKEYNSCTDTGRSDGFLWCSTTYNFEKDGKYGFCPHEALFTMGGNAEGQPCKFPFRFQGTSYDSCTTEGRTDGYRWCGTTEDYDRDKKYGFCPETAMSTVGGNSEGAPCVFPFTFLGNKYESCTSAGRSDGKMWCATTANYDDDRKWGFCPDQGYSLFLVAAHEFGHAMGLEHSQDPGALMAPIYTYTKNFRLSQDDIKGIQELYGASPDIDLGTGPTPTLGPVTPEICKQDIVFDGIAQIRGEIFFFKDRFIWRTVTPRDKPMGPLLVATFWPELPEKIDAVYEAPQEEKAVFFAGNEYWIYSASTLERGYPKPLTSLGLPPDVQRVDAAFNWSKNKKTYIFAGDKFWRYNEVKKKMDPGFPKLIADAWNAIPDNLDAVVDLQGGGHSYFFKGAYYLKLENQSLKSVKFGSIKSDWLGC
A short description of test [11]: Counterscreen for inhibitors of Trypanosoma brucei methionyl tRNA synthetase (MetRS): Luminescence-based cell-based high throughput dose response assay to identify compounds that are cytotoxic to Jurkat human T lymphocyte cells. The class given is functional.
Test [12] has as its target T5, Endoribonuclease toxin MazF (Escherichia coli K-12, UniProt P0AE70).
T5 sequence (P0AE70 whole entry): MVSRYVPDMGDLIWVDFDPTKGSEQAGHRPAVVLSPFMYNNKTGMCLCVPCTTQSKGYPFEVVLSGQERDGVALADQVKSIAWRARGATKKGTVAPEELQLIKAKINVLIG
Description: MazF toxin RNase activators, dose response, biochemical, fluorescence, single-stranded RNA substrate, uHTS hits (AID 588481). In kind it is functional.

Test [13] concerns the target T6, Heat shock factor protein 1 (Mus musculus, UniProt P38532).
T6 sequence (P38532 whole entry): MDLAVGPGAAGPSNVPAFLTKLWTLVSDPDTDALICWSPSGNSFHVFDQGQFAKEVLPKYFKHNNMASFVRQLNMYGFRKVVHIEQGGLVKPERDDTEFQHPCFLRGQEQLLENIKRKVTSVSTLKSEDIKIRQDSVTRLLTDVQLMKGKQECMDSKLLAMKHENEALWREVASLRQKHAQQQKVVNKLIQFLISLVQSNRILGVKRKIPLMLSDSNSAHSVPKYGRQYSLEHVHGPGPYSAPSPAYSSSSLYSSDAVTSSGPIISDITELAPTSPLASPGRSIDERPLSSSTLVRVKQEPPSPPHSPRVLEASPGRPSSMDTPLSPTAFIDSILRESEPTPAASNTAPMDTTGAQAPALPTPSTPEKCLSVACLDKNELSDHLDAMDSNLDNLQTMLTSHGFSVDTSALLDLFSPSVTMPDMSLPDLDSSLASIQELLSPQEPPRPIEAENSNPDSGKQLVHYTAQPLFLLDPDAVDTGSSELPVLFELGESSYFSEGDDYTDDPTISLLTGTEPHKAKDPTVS
The experiment in a line: inhibition of MG132-induced HSE-luciferase signal, confirmation, cell-based, NIH3T3, luminescence, dose retest (AID 2382).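 Also: NIH3T3 fibroblasts with HSF1-driven luciferase reporter stressed by proteasome inhibitor MG132; luminescence from HSF1-driven luciferase expression after 8 hours of MG132 stress.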 The class given is functional.

Test [14] addresses T5, Endoribonuclease toxin MazF. The experiment in a line: fluorescent RNA oligo signal without MazF, dose response, counter-screen for MazEF activator project, biochemical, fluorescence, single-stranded RNase substrate (AID 588502). The class given is functional.
The nature of test [15]: cells. In kind it is functional, cell-based.
Test [16] is described as follows: cells. In kind it is functional, cell-based. This is another data set of the same source.

Structures are written as SMILES. Calls of active or inactive are those of the source.

Sequence of 26S proteasome non-ATPase regulatory subunit 14 (O00487 whole entry): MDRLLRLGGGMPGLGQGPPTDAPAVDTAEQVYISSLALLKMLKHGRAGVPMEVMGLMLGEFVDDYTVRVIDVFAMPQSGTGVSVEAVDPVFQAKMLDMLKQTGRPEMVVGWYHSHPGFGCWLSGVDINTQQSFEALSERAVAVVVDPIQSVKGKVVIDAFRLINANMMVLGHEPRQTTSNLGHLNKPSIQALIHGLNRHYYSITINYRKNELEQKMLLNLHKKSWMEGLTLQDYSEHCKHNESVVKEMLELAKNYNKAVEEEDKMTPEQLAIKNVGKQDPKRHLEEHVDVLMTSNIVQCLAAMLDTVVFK

As to `C[C@H]1CN([C@@H](C)CO)C(=O)c2cccc(NC(=O)Nc3ccc(C(F)(F)F)cc3)c2O[C@H]1CN(C)Cc1ccc2c(c1)OCO2`, the AC50 in [1] is 1.77 µM (active).
Same read-out and setting: next, `C[C@H]1CN([C@@H](C)CO)C(=O)c2cccc(NC(=O)CCCCCC(=O)Nc3ccccc3N)c2O[C@H]1CN(C)Cc1ccc(C(F)(F)F)cc1`: 3.96 µM (active).
In the case of `O=Nc1ccc(NOC(=O)c2ccccc2)cc1`, the IC50 in [2] was > 100 µM (inactive); in [3] it was 21.7 µM (active); on Caspase-3, 48.4 µM (active); in test [4], 8.98 µM (active).
In the case of `C[C@@H]1CN([C@@H](C)CO)C(=O)c2cccc(NC(=O)Nc3ccc(F)cc3)c2O[C@@H]1CN(C)Cc1ccc(-c2ccccc2)cc1`, in test [1], the AC50 was 3.67 µM (active).
Take `CCC1C/C(=C\c2cccnc2)C(=O)/C(=C/c2cccnc2)C1` (stereo not given): the AC50 in test [5] was 12.7 µM (active). Further, the EC50 is 1.01 µM (active) in test [6] and 0.836 µM (active) in test [7].
For `O=C(Nc1nc2c(s1)CCCC2)c1ccc(Br)s1`, the IC50 in test [2] was 25.4 µM (active); in test [3], 5.95 µM (active); in test [8], 25.7 µM (active); on Caspase-3, 24.9 µM (active); in [4] it was 4.82 µM (active).
Turning to `COc1cccc(-n2c(SCC(N)=O)nc3ccccc3c2=O)c1`, the IC50 in test [9] is 55.9 µM (active); at Prothrombin, 58.2 µM (active); in [10] it was > 100 µM (inactive).
`COc1ccc(/C=C2\CCc3ccccc3C2=O)cc1OC`: the IC50 in [2] is 22.1 µM (active); in test [3], 15.8 µM (active); at Caspase-3, 27.3 µM (active); in test [4], 7.94 µM (active).
As to `COc1cccc(/N=C/c2c(O)oc3ccccc3c2=O)c1`, the IC50 in [2] was > 100 µM (inactive); in test [3], > 100 µM (inactive); at Caspase-3, > 100 µM (inactive); in test [4], 14.2 µM (active).
For the compound `N#Cc1c(-c2ccco2)cc(-c2ccc(F)cc2)nc1N`, the figures for the IC50 (in [9]; at Prothrombin; in test [10]) were 15.8 µM (active), 20.9 µM (active) and > 100 µM (inactive), respectively.
`O=C(C1CCN(C2CC(=O)N(c3cccc(Cl)c3)C2=O)CC1)N1CCCC1` (stereo not given): the AC50 in [5] was 4.21 µM (active).
As to `Cc1ccc(C(=O)NN2C(=O)/C(=C/c3nc4ccccc4[nH]3)SC2=S)cc1`, the IC50 in test [11] was 36.7 µM (inactive).
With `NC(=O)c1c(NC(=O)C2COc3ccccc3O2)sc2c1CCN(Cc1ccccc1)C2` (stereo not given), the values for the EC50 in [12], in test [13] and in test [14] were 12.1 µM (active), > 195 µM (not active) and 85.1 µM (inactive), respectively.
For `C[C@H]1CN([C@@H](C)CO)C(=O)c2cc(NC(=O)Nc3ccc(C(F)(F)F)cc3)ccc2O[C@@H]1CN(C)Cc1ccc(C(F)(F)F)cc1`, in test [1], the concentration at half-maximal activity (AC50) is 3.35 µM (active).
Regarding `C/C(=N\NS(=O)(=O)c1ccc([N+](=O)[O-])cc1)c1c[nH]c2ccccc12`, the values for the EC50 in test [12] and in [14] were 14.9 µM (active) and > 99 µM (inactive), respectively.
Taken in the same sequence, the figures for `COc1cc2[nH]c(=O)n(Cc3ccc(C(=O)NC4CCCC4)cc3)c(=O)c2cc1OC` were > 99 µM (inactive) and > 99 µM (inactive).
For `O=[N+]([O-])c1ccc(N/N=C/c2ccccc2O)cc1`, the IC50 was 55.1 µM (active) in test [2], 22.1 µM (active) in [3], 31.1 µM (active) on Caspase-3 and 4.9 µM (active) in test [4]. Moreover, the EC50 in the test “cells [15]” was 10.4 µM (active); in the test “cells [16]”, > 350 µM (not active).
